For test [1], the system named is Bacillus subtilis. Put plainly: microbe, parasite or virus in culture. Particulars: MTCC 736.
Description: Synergistic antibacterial activity against Bacillus subtilis MTCC 736 assessed as inhibition of bacterial growth incubated overnight in presence of LT-SB7 by serial dilution based spectrophotometer
Test [2] deals with Salmonella typhi. The experiment in a line: Antibacterial activity against Salmonella typhi assessed as inhibition of bacterial growth incubated overnight by serial dilution based spectrophotometer. It counts as functional, Salmonella enterica subsp. enterica serovar Typhi. Particulars: Salmonella enterica.
The test system of test [3] is Salmonella typhi. Put plainly: Antibacterial activity against Salmonella typhi assessed as diameter of zone of inhibition at 500 ug/ml by agar disk diffusion method. Format: functional, Salmonella enterica subsp. enterica serovar Typhi. The following applies: Salmonella enterica, read-out: DIZ. (A growth-free zone around the sample is the usual read-out of agar diffusion tests.)

Test [4] deals with Bacillus subtilis. The experiment in a line: Antibacterial activity against Bacillus subtilis MTCC 736 assessed as inhibition of bacterial growth incubated overnight by serial dilution based spectrophotometer. Format: functional.
Test [5] has as its system Enterococcus faecalis. Put plainly: microbe, parasite or virus in culture. The following applies: MTCC 439.
Description: Synergistic antibacterial activity against Enterococcus faecalis MTCC 439 assessed as inhibition of bacterial growth incubated overnight in presence of LT-SB5 by serial dilution based spectrophotometer
For test [6], the system named is Salmonella typhi. Put plainly: Synergistic antibacterial activity against Salmonella typhi assessed as inhibition of bacterial growth incubated overnight in presence of LT-SB7 by serial dilution based spectrophotometer. Particulars: Salmonella enterica.
The test system of test [7] is Enterococcus faecalis. Put plainly: microbe, parasite or virus in culture. Particulars: MTCC 439. This is another data set of the same source.
Description: Synergistic antibacterial activity against Enterococcus faecalis MTCC 439 assessed as inhibition of bacterial growth incubated overnight in presence of LT-SB7 by serial dilution based spectrophotometer
Test [8] deals with Bacillus subtilis. The experiment in a line: Antibacterial activity against Bacillus subtilis MTCC 736 assessed as diameter of zone of inhibition at 500 ug/ml by agar disk diffusion method. It counts as functional. Particulars: read-out: DIZ.
For test [9], the system named is Bacillus subtilis. The experiment in a line: microbe, parasite or virus in culture. Particulars: MTCC 736. The source holds these as a separate data set.
Description: Synergistic antibacterial activity against Bacillus subtilis MTCC 736 assessed as inhibition of bacterial growth incubated overnight in presence of SB9 by serial dilution based spectrophotometer
For another test, the system named is Escherichia coli. Put plainly: microbe, parasite or virus in culture. Particulars: MTCC 443.
The subject of test [10] is Salmonella typhi. Put plainly: Synergistic antibacterial activity against Salmonella typhi assessed as inhibition of bacterial growth incubated overnight in presence of LT-SB23 by serial dilution based spectrophotometer. Particulars: Salmonella enterica.
Test [11] relates to Enterococcus faecalis. The experiment in a line: microbe, parasite or virus in culture. Particulars: MTCC 439. The source holds these as a separate data set.
Description: Synergistic antibacterial activity against Enterococcus faecalis MTCC 439 assessed as inhibition of bacterial growth incubated overnight in presence of SB5 by serial dilution based spectrophotometer
For test [12], the system named is Bacillus subtilis. The experiment in a line: microbe, parasite or virus in culture. The following applies: MTCC 736. The source holds these as a separate data set.
Description: Synergistic antibacterial activity against Bacillus subtilis MTCC 736 assessed as inhibition of bacterial growth incubated overnight in presence of LT-SB23 by serial dilution based spectrophotometer
Another test relates to Pseudomonas aeruginosa. The experiment in a line: Antibacterial activity against Pseudomonas aeruginosa MTCC 2453 assessed as diameter of zone of inhibition at 500 ug/ml by agar disk diffusion method. It counts as functional. Particulars: read-out: DIZ.
The test system of test [13] is Enterococcus faecalis. Put plainly: microbe, parasite or virus in culture. Particulars: MTCC 439. The source holds these as a separate data set.
Description: Synergistic antibacterial activity against Enterococcus faecalis MTCC 439 assessed as inhibition of bacterial growth incubated overnight in presence of LT-SB23 by serial dilution based spectrophotometer
Test [14] has as its system Enterococcus faecalis. The experiment in a line: Antibacterial activity against Enterococcus faecalis MTCC 439 assessed as inhibition of bacterial growth incubated overnight by serial dilution based spectrophotometer. It counts as functional.
The test system of test [15] is Staphylococcus aureus. The experiment in a line: Bacteriostatic activity against Staphylococcus aureus MTCC 902 assessed as reduction in bacterial growth measured upto 24 hrs by absorbance based assay. It counts as functional, organism-based.
Test [16] has as its system Bacillus subtilis. Put plainly: microbe, parasite or virus in culture. The following applies: MTCC 736. The source holds these as a separate data set.
Description: Synergistic antibacterial activity against Bacillus subtilis MTCC 736 assessed as inhibition of bacterial growth incubated overnight in presence of LT-SB5 by serial dilution based spectrophotometer
In test [17] the test system is Salmonella typhi. The experiment in a line: Synergistic antibacterial activity against Salmonella typhi assessed as inhibition of bacterial growth incubated overnight in presence of LT-SB5 by serial dilution based spectrophotometer. The following applies: Salmonella enterica.
Test [18] concerns Staphylococcus aureus. Put plainly: Antibacterial activity against Staphylococcus aureus MTCC 902 assessed as diameter of zone of inhibition at 500 ug/ml by agar disk diffusion method. The following applies: read-out: DIZ. Format: functional.
For test [19], the system named is Enterococcus faecalis. The experiment in a line: Antibacterial activity against Enterococcus faecalis MTCC 439 assessed as diameter of zone of inhibition at 500 ug/ml by agar disk diffusion method. It counts as functional. Particulars: read-out: DIZ.

Converted amounts (≈) assume the structure as drawn. The source made the active and inactive calls. The calls are words filed in the database; no cut-off is given here.

Description for Escherichia coli: Synergistic antibacterial activity against Escherichia coli MTCC 443 assessed as inhibition of bacterial growth incubated overnight in presence of SB5 by serial dilution based spectrophotometer

As for `O=C(O)c1cn(C2CC2)c2cc(N3CCNCC3)c(F)cc2c1=O` [CIPROFLOXACIN], the MIC against Bacillus subtilis [1] stood at 0.25 µg/mL (≈ 0.754 µM); in the test on Salmonella typhi [2] it was 0.5 µg/mL (≈ 1.51 µM); in the test with Bacillus subtilis [4], 1 µg/mL (≈ 3.02 µM); in the test with Enterococcus faecalis [5], 0.5 µg/mL (≈ 1.51 µM); in the test on Salmonella typhi [6], 0.031 µg/mL; in the test on Enterococcus faecalis [7], 0.125 µg/mL (≈ 0.377 µM). Further, the MIC against Bacillus subtilis [9] came out at 0.5 µg/mL (≈ 1.51 µM); in the test on Escherichia coli, 0.062 µg/mL (≈ 0.187 µM); with Salmonella typhi [10] it was 0.031 µg/mL; in the test on Enterococcus faecalis [11], 0.5 µg/mL (≈ 1.51 µM); in the test with Bacillus subtilis [12] it was 1 µg/mL (≈ 3.02 µM); in the test with Enterococcus faecalis [13], 0.125 µg/mL (≈ 0.377 µM). The values for the MIC in the test with Enterococcus faecalis [14], in the test on Bacillus subtilis [16] and in the test on Salmonella typhi [17] were 0.5 µg/mL (≈ 1.51 µM), 1 µg/mL (≈ 3.02 µM) and 0.031 µg/mL, respectively. Besides, the zone of inhibition at 500 µg/mL came to 18 mm in the test with Salmonella typhi [3]; 22 mm in the test on Bacillus subtilis [8]; 24 mm with Pseudomonas aeruginosa; 19 mm in the test with Staphylococcus aureus [18]; 18 mm in the test on Enterococcus faecalis [19]. Also, the outcome in the test on Staphylococcus aureus [15] was Active.

These data come from ChEMBL document CHEMBL6078713, “Synthesis and mechanistic studies of 4-aminoquinoline-Isatin molecular hybrids and Schiff's bases as promising antimicrobial agents” (Eur J Med Chem, 2025).
